Data taken from patent US20260028326A1, “COMPOUND BASED ON ISOINDOLINE-SUBSTITUTED GLUTARIMIDE BACKBONE AND USE THEREOF” (GLUETACS THERAPEUTICS (SHANGHAI) CO., LTD., priority 2022, published 2026).
Where “and” joins values, the source holds several entries; their conditions need not be identical. Identical values can stand only once.

Columns and labels:
[1] = target: IKZF3 protein (Homo sapiens (Human), UniProt Q96SW2+Q9UKT9); assay: Western-blot assay of substrate protein degradation in hPBMC, IKZF3; format: cell-based; conditions: hPBMC cells, compound 500 nM, 24 hours, Western blot
[2] = target: GSPT1 protein (Homo sapiens (Human), UniProt P15170+Q96SW2); assay: Western-blot assay of substrate protein degradation in hPBMC, GSPT1; format: cell-based; conditions: hPBMC cells, compound 500 nM, 24 hours, Western blot
[3] = target: human Cereblon WT GST-tagged protein (Homo sapiens (Human), UniProt Q96SW2); assay: CRBN-binding affinity, HTRF (CEREBLON BINDING kit)
How it was run: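 HTRF competition readout: compounds compete with a thalidomide-Re conjugate for GST-tagged wild-type human CRBN detected via Eu-labelled anti-GST antibody. Inhibition rate derived relative to protein-free blank wells.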

[4] = target: IKZF1 protein (Homo sapiens (Human), UniProt Q13422+Q96SW2); assay: Western-blot assay of substrate protein degradation in hPBMC, IKZF1; format: cell-based; conditions: hPBMC cells, compound 500 nM, 24 hours, Western blot
Chain of IKZF1 protein (Q13422 whole entry): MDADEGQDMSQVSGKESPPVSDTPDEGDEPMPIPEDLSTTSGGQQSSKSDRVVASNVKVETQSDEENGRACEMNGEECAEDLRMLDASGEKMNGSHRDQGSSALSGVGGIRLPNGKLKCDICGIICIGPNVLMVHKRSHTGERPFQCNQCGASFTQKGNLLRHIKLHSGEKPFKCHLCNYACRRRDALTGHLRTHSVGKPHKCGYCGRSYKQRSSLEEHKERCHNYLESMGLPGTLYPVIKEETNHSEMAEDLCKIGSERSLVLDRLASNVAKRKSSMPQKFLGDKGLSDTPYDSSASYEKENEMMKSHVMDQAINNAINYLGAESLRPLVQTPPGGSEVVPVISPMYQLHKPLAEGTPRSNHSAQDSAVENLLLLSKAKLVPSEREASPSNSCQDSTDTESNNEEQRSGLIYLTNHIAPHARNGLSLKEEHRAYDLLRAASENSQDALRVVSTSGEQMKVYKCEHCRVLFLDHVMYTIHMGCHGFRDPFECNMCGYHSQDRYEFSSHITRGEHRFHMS
Chain of IKZF1 protein (Q96SW2 whole entry): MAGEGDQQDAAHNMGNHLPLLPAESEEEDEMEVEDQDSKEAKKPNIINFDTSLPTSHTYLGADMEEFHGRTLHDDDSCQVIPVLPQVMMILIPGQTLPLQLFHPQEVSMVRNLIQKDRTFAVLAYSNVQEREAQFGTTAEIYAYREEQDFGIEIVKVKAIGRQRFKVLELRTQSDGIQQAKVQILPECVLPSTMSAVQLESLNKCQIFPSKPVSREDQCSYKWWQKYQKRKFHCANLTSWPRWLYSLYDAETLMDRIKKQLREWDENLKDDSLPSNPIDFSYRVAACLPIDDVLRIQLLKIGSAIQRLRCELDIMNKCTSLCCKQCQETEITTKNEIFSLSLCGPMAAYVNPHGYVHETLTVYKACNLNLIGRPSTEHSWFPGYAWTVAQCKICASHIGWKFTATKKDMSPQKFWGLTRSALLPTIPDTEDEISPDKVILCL
Chain of IKZF1 protein (Q16531 whole entry partner): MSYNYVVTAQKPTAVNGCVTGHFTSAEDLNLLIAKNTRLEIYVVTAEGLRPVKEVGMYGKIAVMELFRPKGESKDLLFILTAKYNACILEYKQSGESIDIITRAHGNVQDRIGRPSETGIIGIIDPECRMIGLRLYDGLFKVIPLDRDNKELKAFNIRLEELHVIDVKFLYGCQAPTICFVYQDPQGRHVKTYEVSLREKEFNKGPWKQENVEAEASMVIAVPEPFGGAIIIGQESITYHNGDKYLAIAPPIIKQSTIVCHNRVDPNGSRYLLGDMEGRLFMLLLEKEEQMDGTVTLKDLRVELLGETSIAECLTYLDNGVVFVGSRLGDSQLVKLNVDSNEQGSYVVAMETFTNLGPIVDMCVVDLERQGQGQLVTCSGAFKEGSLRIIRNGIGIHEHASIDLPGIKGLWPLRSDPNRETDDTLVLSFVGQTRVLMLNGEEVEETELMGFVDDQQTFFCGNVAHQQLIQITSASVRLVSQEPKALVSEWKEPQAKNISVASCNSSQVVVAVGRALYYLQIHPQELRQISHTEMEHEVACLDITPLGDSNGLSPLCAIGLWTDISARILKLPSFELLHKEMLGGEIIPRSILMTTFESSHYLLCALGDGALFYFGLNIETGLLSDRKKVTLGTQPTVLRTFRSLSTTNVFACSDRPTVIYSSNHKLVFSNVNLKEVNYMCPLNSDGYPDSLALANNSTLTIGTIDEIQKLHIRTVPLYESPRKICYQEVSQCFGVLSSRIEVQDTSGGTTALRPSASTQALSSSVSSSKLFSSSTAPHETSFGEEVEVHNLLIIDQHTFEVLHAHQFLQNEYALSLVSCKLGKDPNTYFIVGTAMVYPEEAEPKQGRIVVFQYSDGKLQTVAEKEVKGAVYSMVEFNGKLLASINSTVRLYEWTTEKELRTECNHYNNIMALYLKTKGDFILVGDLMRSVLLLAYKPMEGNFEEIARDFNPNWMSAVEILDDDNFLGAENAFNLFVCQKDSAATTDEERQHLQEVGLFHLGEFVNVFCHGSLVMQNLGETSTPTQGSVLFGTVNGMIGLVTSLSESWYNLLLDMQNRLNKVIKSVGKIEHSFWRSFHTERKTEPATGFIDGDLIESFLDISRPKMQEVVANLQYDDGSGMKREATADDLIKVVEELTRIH

Chain of IKZF3 protein (Q9UKT9 whole entry): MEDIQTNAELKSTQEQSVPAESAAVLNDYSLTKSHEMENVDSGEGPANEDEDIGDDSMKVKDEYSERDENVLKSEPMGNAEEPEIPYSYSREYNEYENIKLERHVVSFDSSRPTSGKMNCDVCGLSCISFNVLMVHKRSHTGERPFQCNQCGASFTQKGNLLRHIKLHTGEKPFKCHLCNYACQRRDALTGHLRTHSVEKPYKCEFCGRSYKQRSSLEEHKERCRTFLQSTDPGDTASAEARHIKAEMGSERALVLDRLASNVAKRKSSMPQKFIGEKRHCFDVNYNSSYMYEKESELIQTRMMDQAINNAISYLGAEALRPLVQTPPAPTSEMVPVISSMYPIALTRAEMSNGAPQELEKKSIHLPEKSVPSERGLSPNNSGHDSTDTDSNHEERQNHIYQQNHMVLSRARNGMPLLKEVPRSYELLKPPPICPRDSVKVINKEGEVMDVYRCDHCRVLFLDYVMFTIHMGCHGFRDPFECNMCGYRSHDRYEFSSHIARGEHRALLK
Chain of IKZF3 protein (Q96SW2 whole entry): as the sequence (Q96SW2 whole entry) above
Chain of IKZF3 protein (Q16531 whole entry partner): as the sequence (Q16531 whole entry partner) above
Chain of human Cereblon WT GST-tagged protein (Q96SW2 whole entry): as the sequence (Q96SW2 whole entry) above
Chain of GSPT1 protein (P15170 whole entry): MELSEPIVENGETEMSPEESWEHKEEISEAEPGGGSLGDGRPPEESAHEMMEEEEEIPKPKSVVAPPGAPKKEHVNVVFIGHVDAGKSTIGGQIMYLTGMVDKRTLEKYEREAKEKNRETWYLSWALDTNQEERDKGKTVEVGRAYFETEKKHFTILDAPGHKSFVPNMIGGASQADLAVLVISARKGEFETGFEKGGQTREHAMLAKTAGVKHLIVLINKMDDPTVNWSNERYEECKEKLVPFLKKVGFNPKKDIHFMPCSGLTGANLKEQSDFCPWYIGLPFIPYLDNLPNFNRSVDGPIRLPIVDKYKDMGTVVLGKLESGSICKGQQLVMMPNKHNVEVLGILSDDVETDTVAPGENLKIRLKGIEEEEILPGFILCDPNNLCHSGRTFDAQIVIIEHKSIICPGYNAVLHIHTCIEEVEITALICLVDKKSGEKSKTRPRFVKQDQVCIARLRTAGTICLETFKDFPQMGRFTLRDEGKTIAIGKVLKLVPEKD
Chain of GSPT1 protein (Q96SW2 whole entry): as the sequence (Q96SW2 whole entry) above
Chain of GSPT1 protein (Q16531 whole entry partner): as the sequence (Q16531 whole entry partner) above

Row | Structure (SMILES) | residual substrate protein level, IKZF3 [1] | residual substrate protein level, GSPT1 [2] | IC50 [3] | residual substrate protein level, IKZF1 [4]
1 | CC1(C)CCC(C(=O)N2CC(O)(C(O)c3ccc4c(c3)CN(C3CCC(=O)NC3=O)C4=O)C2)=C(c2ccc(Cl)cc2)C1 (stereo not drawn) [GT-05426, 3-(5-((1-(4′-chloro-5,5-dimethyl-3,4,5,6-tetrahydro-[1,1′-biphenyl]-2-carbonyl)-3-hydroxyazetidin-3-yl)(hydroxy)methyl)-1-oxoisoindolin-2-yl)piperidine-2,6-dione] | A (A represents a residual substrate protein level of <50%) | A (A represents a residual substrate protein level of <50%) | 0.62 µM | B (B represents a residual substrate protein level of >50%)
2 | O=C1CCC(N2Cc3cc(CN4C5CC4CN(C(=O)c4ccccc4-c4ccc(Cl)cc4)C5)ccc3C2=O)C(=O)N1 (stereo not drawn) [GT-05665, 3-(5-((3-(4′-chloro-[1,1′-biphenyl]-2-carbonyl)-3,6-diazabicyclo[3.1.1]heptan-6-yl)methyl)-1-oxoisoindolin-2-yl)piperidine-2,6-dione] | B (B represents a residual substrate protein level of >50%) | A (A represents a residual substrate protein level of <50%) | 0.6 µM | B (B represents a residual substrate protein level of >50%)
3 | O=C1CCC(N2Cc3cc(CN4CCCN(C(=O)c5ccccc5-c5ccc(Cl)cc5)CC4)ccc3C2=O)C(=O)N1 (stereo not drawn) [GT-05644, 3-(5-((4-(4′-chloro-[1,1′-biphenyl]-2-carbonyl)-1,4-diazepan-1-yl)methyl)-1-oxoisoindolin-2-yl)piperidine-2,6-dione] | B (B represents a residual substrate protein level of >50%) | A (A represents a residual substrate protein level of <50%) | 0.59 µM | B (B represents a residual substrate protein level of >50%)
4 | O=C1CCC(N2Cc3cc(CN4C5CCC4CN(Cc4ccccc4-c4ccc(Cl)cc4)C5)ccc3C2=O)C(=O)N1 (stereo not drawn) [GT-05710, 3-(5-((3-((4′-chloro-[1,1′-biphenyl]-2-yl)methyl)-3,8-diazabicyclo[3.2.1]octan-8-yl)methyl)-1-oxoisoindolin-2-yl)piperidine-2,6-dione] | A (A represents a residual substrate protein level of <50%) | A (A represents a residual substrate protein level of <50%) | 1.1 µM | B (B represents a residual substrate protein level of >50%)
5 | O=C1CCC(N2Cc3cc(CN4C5CC4CN(Cc4ccccc4-c4ccc(Cl)cc4)C5)ccc3C2=O)C(=O)N1 (stereo not drawn) [GT-05607, 3-(5-((3-((4′-chloro-[1,1′-biphenyl]-2-yl)methyl)-3,6-diazabicyclo[3.1.1]heptan-6-yl)methyl)-1-oxoisoindolin-2-yl)piperidine-2,6-dione] | B (B represents a residual substrate protein level of >50%) | A (A represents a residual substrate protein level of <50%) | 1.15 µM and 0.88 µM | B (B represents a residual substrate protein level of >50%)
6 | CC1(C)CCC(CN2CC3CC(C2)N3Cc2ccc3c(c2)CN(C2CCC(=O)NC2=O)C3=O)=C(c2ccc(F)cc2)C1 (stereo not drawn) [GT-05399, 3-(5-((3-((4′-fluoro-5,5-dimethyl-3,4,5,6-tetrahydro-[1,1′-biphenyl]-2-yl)methyl)-3,6-diazabicyclo[3.1.1]heptan-6-yl)methyl)-1-oxoisoindolin-2-yl)piperidine-2,6-dione] | B (B represents a residual substrate protein level of >50%) | A (A represents a residual substrate protein level of <50%) | 0.43 µM | B (B represents a residual substrate protein level of >50%)
7 | CC1(C)CCC(CN2CC3CCC2CN3Cc2ccc3c(c2)CN(C2CCC(=O)NC2=O)C3=O)=C(c2ccc(F)cc2)C1 (stereo not drawn) [GT-05512, 3-(5-((5-((4′-fluoro-5,5-dimethyl-3,4,5,6-tetrahydro-[1,1′-biphenyl]-2-yl)methyl)-2,5-diazabicyclo[2.2.2]octan-2-yl)methyl)-1-oxoisoindolin-2-yl)piperidine-2,6-dione] | B (B represents a residual substrate protein level of >50%) | A (A represents a residual substrate protein level of <50%) | 0.57 µM | B (B represents a residual substrate protein level of >50%)
8 | O=C1CCC(N2Cc3cc(C(=O)N4CC5CCC(C4)N5Cc4ccccc4-c4ccc(Cl)cc4)ccc3C2=O)C(=O)N1 (stereo not drawn) [GT-05621, 3-(5-(8-((4′-chloro-[1,1′-biphenyl]-2-yl)methyl)-3,8-diazabicyclo[3.2.1]octane-3-carbonyl)-1-oxoisoindolin-2-yl)piperidine-2,6-dione] | B (B represents a residual substrate protein level of >50%) | A (A represents a residual substrate protein level of <50%) | 1.1 µM | B (B represents a residual substrate protein level of >50%)
9 | CC1(C)CCC(CN2CC3CC(C2)N3C(=O)c2ccc3c(c2)CN(C2CCC(=O)NC2=O)C3=O)=C(c2ccc(F)cc2)C1 (stereo not drawn) [GT-05450, 3-(5-(3-((4′-fluoro-5,5-dimethyl-3,4,5,6-tetrahydro-[1,1′-biphenyl]-2-yl)methyl)-3,6-diazabicyclo[3.1.1]heptane-6-carbonyl)-1-oxoisoindolin-2-yl)piperidine-2,6-dione] | B (B represents a residual substrate protein level of >50%) | A (A represents a residual substrate protein level of <50%) | 0.89 µM | B (B represents a residual substrate protein level of >50%)
10 | CC1(C)CCC(CN2CC3CC2CN3Cc2ccc3c(c2)CN(C2CCC(=O)NC2=O)C3=O)=C(c2ccc(F)cc2)C1 (stereo not drawn) [GT-05401, 3-(5-((5-((4′-fluoro-5,5-dimethyl-3,4,5,6-tetrahydro-[1,1′-biphenyl]-2-yl)methyl)-2,5-diazabicyclo[2.2.1]heptan-2-yl)methyl)-1-oxoisoindolin-2-yl)piperidine-2,6-dione] | A (A represents a residual substrate protein level of <50%) | B (B represents a residual substrate protein level of >50%) | 0.59 µM | B (B represents a residual substrate protein level of >50%)
11 | O=C1CCC(N2Cc3cc(CN4CCN(CC5=C(c6ccc(F)cc6)CCCC5)CC4)ccc3C2=O)C(=O)N1 (stereo not drawn) [GT-04193, 3-(5-((4-((4′-fluoro-3,4,5,6-tetrahydro-[1,1′-biphenyl]-2-yl)methyl)piperazin-1-yl)methyl)-1-oxoisoindolin-2-yl)piperidine-2,6-dione] | A (A represents a residual substrate protein level of <50%) | A (A represents a residual substrate protein level of <50%) | 0.46 µM | A (A represents a residual substrate protein level of <50%)
12 | O=C1CCC(N2Cc3cc(C=C4CN(Cc5ccccc5-c5ccc(Cl)cc5)C4)ccc3C2=O)C(=O)N1 (stereo not drawn) [GT-03881, 3-(5-((1-((4′-chloro-[1,1′-biphenyl]-2-yl)methyl)azetidin-3-ylidene)methyl)-1-oxoisoindolin-2-yl)piperidine-2,6-dione] | B (B represents a residual substrate protein level of >50%) | A (A represents a residual substrate protein level of <50%) | 0.48 µM | B (B represents a residual substrate protein level of >50%)
13 | O=C1CCC(N2Cc3cc(C(=O)N4C5CC4CN(C(=O)C4=C(c6ccc(F)cc6)CCCC4)C5)ccc3C2=O)C(=O)N1 (stereo not drawn) [GT-05449, 3-(5-(3-(4′-fluoro-3,4,5,6-tetrahydro-[1,1′-biphenyl]-2-carbonyl)-3,6-diazabicyclo[3.1.1]heptane-6-carbonyl)-1-oxoisoindolin-2-yl)piperidine-2,6-dione] | B (B represents a residual substrate protein level of >50%) | A (A represents a residual substrate protein level of <50%) | 1.69 µM | B (B represents a residual substrate protein level of >50%)
14 | CC1(C)CCC(CN2CC3CC(C2)N3Cc2ccc3c(c2F)CN(C2CCC(=O)NC2=O)C3=O)=C(c2ccc(Cl)cc2)C1 (stereo not drawn) [GT-03493, 3-(5-((3-((4′-chloro-5,5-dimethyl-3,4,5,6-tetrahydro-[1,1′-biphenyl]-2-yl)methyl)-3,6-diazabicyclo[3.1.1]heptan-6-yl)methyl)-4-fluoro-1-oxoisoindolin-2-yl)piperidine-2,6-dione] | A (A represents a residual substrate protein level of <50%) | A (A represents a residual substrate protein level of <50%) | 0.75 µM | A (A represents a residual substrate protein level of <50%)
15 | O=C1CCC(N2Cc3cc(CN4CCN(C(=O)C5=C(c6ccc(F)cc6)CCCC5)CC4)c(F)cc3C2=O)C(=O)N1 (stereo not drawn) [GT-05473, 3-(6-fluoro-5-((4-(4′-fluoro-3,4,5,6-tetrahydro-[1,1′-biphenyl]-2-carbonyl)piperazin-1-yl)methyl)-1-oxoisoindolin-2-yl)piperidine-2,6-dione] | B (B represents a residual substrate protein level of >50%) | A (A represents a residual substrate protein level of <50%) | 1.16 µM | B (B represents a residual substrate protein level of >50%)
